In ChEMBL document CHEMBL4177631, “Polyhydroxylated azetidine iminosugars: Synthesis, glycosidase inhibitory activity and molecular docking studies” (Bioorg Med Chem Lett, 2017) one finds IC50 and inhibition data, which are given here for four compounds.

The target in one test is T1, Alpha-galactosidase (Escherichia coli, UniProt P16551).
T1 sequence (P16551 whole entry): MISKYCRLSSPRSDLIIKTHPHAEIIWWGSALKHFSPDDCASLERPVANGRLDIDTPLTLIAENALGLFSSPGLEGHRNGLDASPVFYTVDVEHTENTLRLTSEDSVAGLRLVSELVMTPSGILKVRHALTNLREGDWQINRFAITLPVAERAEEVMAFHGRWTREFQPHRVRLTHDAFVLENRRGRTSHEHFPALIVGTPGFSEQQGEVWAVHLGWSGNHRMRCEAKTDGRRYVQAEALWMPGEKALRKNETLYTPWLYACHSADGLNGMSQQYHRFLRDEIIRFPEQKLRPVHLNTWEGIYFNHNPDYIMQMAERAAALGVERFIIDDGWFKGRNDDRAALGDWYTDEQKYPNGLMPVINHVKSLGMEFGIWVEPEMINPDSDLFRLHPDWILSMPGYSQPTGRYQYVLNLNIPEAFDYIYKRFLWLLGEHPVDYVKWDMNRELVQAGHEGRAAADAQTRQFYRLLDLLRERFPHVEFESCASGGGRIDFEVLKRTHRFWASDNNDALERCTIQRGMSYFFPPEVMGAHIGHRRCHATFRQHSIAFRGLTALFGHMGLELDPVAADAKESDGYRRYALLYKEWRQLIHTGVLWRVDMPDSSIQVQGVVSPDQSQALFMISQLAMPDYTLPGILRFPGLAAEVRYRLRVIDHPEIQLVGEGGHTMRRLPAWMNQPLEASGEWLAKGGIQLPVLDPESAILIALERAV
As to the kind of experiment: Inhibition of Escherichia coli alpha-galactosidase using p-nitrophenyl-alpha-D-galactopyranoside as substrate preincubated for 1 hr followed by substrate addition measured after 10 mins by spectrophotometric method.

Another test has as its target T2, Alpha-mannosidase (Canavalia ensiformis, UniProt C0HJB3).
T2 sequence (C0HJB3 whole entry): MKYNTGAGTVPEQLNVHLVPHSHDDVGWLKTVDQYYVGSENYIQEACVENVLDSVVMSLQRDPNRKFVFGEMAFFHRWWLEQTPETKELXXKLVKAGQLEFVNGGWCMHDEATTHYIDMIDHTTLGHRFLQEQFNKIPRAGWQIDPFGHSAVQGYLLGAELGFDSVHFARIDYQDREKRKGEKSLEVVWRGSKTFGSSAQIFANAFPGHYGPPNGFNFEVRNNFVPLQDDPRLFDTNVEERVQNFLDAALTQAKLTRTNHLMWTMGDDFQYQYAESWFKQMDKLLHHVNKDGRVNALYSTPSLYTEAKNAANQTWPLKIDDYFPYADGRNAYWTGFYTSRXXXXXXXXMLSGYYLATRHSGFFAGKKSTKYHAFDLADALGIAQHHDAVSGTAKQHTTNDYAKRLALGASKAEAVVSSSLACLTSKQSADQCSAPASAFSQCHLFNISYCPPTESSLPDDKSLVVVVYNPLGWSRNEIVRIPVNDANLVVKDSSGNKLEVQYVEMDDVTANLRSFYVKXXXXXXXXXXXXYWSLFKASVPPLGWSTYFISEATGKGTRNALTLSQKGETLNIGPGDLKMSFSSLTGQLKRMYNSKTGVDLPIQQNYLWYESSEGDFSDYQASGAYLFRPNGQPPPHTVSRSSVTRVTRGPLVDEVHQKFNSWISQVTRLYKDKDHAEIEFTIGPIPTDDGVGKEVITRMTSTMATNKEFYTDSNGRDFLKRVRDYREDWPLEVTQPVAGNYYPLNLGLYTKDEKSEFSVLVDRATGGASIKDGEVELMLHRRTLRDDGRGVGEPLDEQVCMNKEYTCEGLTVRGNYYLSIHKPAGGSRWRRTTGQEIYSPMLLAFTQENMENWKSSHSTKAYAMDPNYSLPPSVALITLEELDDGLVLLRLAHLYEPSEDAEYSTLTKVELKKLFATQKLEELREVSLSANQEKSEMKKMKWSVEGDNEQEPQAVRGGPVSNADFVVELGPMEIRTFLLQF
The experiment in a line: Inhibition of Canavalia ensiformis alpha-mannosidase using p-nitrophenyl-alpha-D-mannopyranoside as substrate preincubated for 1 hr followed by substrate addition measured after 10 mins by spectrophotometric method.

A short description of test [1]: Inhibition of Aspergillus niger amyloglucosidase using starch as substrate after 10 mins by Miller method.
A further test concerns the target T3, Alpha-glucosidase (Aspergillus niger, UniProt P56526).
T3 sequence (P56526 whole entry): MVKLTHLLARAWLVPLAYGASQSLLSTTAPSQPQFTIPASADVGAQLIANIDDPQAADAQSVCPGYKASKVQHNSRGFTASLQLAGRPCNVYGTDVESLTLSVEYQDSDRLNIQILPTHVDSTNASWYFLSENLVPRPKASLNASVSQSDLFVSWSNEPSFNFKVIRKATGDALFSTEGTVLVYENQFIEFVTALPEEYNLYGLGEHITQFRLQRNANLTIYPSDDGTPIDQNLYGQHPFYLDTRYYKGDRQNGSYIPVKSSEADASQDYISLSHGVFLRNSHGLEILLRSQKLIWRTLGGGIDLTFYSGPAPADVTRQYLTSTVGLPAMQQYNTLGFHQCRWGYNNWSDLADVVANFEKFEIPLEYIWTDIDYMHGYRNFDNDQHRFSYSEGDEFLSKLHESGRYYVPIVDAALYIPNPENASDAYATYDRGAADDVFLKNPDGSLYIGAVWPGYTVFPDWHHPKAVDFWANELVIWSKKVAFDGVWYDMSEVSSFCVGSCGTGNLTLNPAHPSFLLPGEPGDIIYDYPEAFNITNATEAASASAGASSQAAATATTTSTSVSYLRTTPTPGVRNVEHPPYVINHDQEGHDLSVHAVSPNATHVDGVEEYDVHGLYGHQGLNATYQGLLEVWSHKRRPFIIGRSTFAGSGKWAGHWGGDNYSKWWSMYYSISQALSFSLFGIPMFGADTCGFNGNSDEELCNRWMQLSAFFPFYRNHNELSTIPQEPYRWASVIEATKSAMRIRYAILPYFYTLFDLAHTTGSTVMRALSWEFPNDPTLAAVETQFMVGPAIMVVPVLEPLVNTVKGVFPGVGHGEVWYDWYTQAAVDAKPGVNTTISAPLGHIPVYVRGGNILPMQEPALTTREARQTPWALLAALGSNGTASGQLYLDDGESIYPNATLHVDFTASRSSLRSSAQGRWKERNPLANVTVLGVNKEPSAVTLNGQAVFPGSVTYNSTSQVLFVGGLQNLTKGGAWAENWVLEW
As to the kind of experiment: Inhibition of Aspergillus niger alpha-glucosidase using p-nitrophenyl-alpha-D-glucopyranoside as substrate preincubated for 1 hr followed by substrate addition measured after 10 mins by spectrophotometric method.

Test [2] concerns the target T4, Alpha-galactosidase (Escherichia coli) (UniProt P16551).
T4 sequence (whole entry): T1 sequence (P16551 whole entry)
The experiment in a line: Inhibition of Escherichia coli alpha-galactosidase at 1 mM using p-nitrophenyl-alpha-D-galactopyranoside as substrate preincubated for 1 hr followed by substrate addition measured after 10 mins by spectrophotometric method.

Another test concerns Aspergillus niger. As to the kind of experiment: Inhibition of Aspergillus niger amyloglucosidase at 1 mM using starch as substrate after 10 mins by Miller method.

pIC50: −log10 of the molar value. Calls of active or inactive are those of the source. No cut-off for these calls is given here.

Regarding `OC[C@@H]1N[C@H]([C@@H](O)CO)[C@@H]1O`, the pIC50 on Alpha-galactosidase is 4.26; on Alpha-mannosidase, 4.12; in test [1] it was 4.11; against Alpha-glucosidase it was 4.27.
Take `CN1[C@H](C(=O)O)[C@H](O)[C@@H]1CO`: the inhibition entry (in test [2]; in the test with Aspergillus niger) was “inactive” throughout. Moreover, the negative-log IC50 (pIC50) on Alpha-mannosidase is 4.08; at Alpha-glucosidase, 4.19.
As for `OC[C@@H]1N[C@H](CO)[C@@H]1O`, the inhibition entry in test [2] is “inactive”. The negative-log IC50 (pIC50) against Alpha-mannosidase was 3.70; in test [1], 3.09; against Alpha-glucosidase it was 4.05.
Take `OCCN1C[C@H](O)[C@@H](O)[C@H](O)[C@H]1CO` [MIGLITOL]: the inhibition entry in test [2] was “inactive”. Moreover, the negative-log IC50 (pIC50) in test [1] was 3.70; against Alpha-glucosidase, 4.24.
